# Columns and labels:
# TLR7 [1] = target: T1, TLR7 (Homo sapiens, UniProt Q9NYK1); assay: NF-kB reporter HEK293 cells expressing human TLR7 (agonism; lowest active concentration); type: cell-based
# T1 construct: HEK-Blue-hTLR7 reporter cells
# T1 sequence (Q9NYK1 27-1049): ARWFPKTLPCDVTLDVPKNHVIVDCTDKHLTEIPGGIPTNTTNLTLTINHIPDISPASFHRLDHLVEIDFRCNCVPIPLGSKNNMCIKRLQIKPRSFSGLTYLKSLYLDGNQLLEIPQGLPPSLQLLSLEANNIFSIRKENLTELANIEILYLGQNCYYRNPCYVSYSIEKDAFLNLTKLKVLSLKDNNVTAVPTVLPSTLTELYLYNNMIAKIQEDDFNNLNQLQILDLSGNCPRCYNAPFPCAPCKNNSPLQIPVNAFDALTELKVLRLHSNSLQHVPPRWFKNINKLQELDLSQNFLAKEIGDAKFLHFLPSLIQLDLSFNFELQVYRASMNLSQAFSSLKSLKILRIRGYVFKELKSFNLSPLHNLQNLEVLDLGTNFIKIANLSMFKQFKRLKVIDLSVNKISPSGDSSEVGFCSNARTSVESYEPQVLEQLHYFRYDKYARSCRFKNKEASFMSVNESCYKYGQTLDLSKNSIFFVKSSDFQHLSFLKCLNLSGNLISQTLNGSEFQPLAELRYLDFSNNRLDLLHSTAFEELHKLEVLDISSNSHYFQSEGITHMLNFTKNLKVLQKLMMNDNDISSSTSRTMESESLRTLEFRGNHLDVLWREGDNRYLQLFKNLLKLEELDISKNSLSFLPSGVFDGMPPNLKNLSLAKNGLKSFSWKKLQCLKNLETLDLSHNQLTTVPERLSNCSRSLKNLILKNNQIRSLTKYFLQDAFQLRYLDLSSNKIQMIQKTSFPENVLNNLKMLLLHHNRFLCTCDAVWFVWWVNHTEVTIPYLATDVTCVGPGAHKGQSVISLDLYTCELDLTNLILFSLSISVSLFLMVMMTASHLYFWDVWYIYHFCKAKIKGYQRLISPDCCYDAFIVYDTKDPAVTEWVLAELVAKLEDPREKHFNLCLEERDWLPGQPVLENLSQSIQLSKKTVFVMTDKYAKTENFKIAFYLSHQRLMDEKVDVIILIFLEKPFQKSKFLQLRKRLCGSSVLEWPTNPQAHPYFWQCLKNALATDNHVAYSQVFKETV
# TLR7 [2] = target: T2, TLR7 (Mus musculus, UniProt P58681); assay: NF-kB reporter HEK293 cells expressing murine TLR7 (agonism; lowest active concentration); type: cell-based
# T2 construct: HEK-Blue-mTLR7 reporter cells
# T2 sequence (P58681 27-1050): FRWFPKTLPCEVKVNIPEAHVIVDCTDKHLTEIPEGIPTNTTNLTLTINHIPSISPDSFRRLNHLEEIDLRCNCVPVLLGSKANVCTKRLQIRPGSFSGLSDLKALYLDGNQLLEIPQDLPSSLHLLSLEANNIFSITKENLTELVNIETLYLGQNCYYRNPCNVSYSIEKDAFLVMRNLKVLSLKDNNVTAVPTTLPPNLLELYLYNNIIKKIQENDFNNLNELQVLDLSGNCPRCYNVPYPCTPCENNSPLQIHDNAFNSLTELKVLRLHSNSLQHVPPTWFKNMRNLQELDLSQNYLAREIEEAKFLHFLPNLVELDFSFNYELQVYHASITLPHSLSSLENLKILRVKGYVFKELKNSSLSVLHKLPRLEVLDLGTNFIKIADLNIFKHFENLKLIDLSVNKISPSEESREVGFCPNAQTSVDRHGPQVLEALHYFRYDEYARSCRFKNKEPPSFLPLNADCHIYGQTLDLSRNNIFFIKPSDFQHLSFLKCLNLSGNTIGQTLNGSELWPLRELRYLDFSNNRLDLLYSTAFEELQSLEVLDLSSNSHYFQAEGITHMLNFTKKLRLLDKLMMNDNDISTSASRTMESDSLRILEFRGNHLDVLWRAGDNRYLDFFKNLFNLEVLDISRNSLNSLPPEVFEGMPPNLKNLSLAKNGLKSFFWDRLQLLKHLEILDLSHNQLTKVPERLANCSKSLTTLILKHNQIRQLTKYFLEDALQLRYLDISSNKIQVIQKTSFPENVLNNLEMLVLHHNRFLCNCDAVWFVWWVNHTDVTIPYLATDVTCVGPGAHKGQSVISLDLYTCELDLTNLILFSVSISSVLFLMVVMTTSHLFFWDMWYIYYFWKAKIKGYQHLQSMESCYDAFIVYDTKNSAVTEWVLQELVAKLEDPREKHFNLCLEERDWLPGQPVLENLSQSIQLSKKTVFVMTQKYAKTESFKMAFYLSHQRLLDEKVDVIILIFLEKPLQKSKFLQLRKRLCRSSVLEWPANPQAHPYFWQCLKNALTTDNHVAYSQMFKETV
compound,measurement,setting,value
CC(C)Cn1cnc2c(N)nc3ccccc3c21 [imiquimod],NF-kB reporter HEK293 cells expressing human TLR7 (agonism); lowest active concen,TLR7 [1],4.16 µM
same,NF-kB reporter HEK293 cells expressing murine TLR7 (agonism); lowest active conce,TLR7 [2],4.16 µM

# — publication PMC5552358, “Imidazoquinoxaline anticancer derivatives and imiquimod interact with tubulin: Characterization of molecular microtubule inhibiting mechanisms in correlation with cytotoxicity” (PLoS ONE, 2017)
